The values that follow come from patent publication US20050020544A1, “Bicyclic CB2 cannabinoid receptor ligands” (priority 2002, published 2005).

The test system of one data set is Sprague Dawley male rats. In words: Tail flick model, i.v. Format: in vivo, rat. Conditions: for % animals with latency time twice superior to vehicle: ninety minutes. On the procedure: Each treatment group contained at least 6 animals. […] Its vehicle, saline, was also included as control.
Two parameters were used to analyze the results, the latency time and the % of animals showing analgesia. […] The results in both cases are expressed as mean±SE.
Similar studies were performed in Sprague Dawley male rats where the drug was injected i.v. instead of i.p. in the mice model. […] These observations are consistent with the route of administration. In the i.p. study the first time point post-injection was 30 minutes, while it was 10 minutes following i.v. injection thus the onset of action was not thoroughly determined in these experiments. […] At the last time point tested (330 minutes following injection), almost 70% of the animals treated with 4 mg/kg of compound A retained increase resistance to pain.

The subject of a further data set is Lewis rats. Format: in vivo, rat. On the procedure: Various animal models of autoimmune encephalomyelitis are known in the art, depending on the method of induction, the strain of the animal and the antigen employed to induce the disease. The impact of bicyclic CB2 ligands was tested in EAE using Lewis rats in which the onset of disease is observed by the appearance of clinical symptoms about 10 days after induction. The disease progress and the clinical score increase and peak around day 15 and spontaneous recovery is observed around day 18 after induction of the disease. The animals (at least 9 per test group at initiation of study, except for the untreated control group that comprised only 5 rats) were maintained on a 12 hours light/12 hours dark regimen, at a constant temperature of 22° C., with food and water ad libitum. EAE was induced in these animals by immunization with s.c. injection to the hind paws of 25 μg of purified guinea pig myelin basic protein (MBP, Sigma) emulsified in 0.1 ml of Complete Freund's Adjuvant (Difco).
Methylprednisolone was used as positive control and it was administered daily for 5 consecutive days i.v. at 30 mg/kg starting from day of disease induction by MBP injection. The results are recorded as clinical score; score of 0 indicates a normal animal with no clinical signs, 0.5 indicates a loss of tonicity in the tail's distal part, 1 indicates whole tail paralysis, 2 indicates paraplegia, 3 indicates quadriplegia, 4 indicates complete body paralysis and moribund state and 5 indicates death. The clinical score of the animals is recorded for 11 days following onset of disease and the area under the curve (AUC) is calculated over this period of time.
Moreover, in a separate study animals were euthanized 15 days after induction of the disease by i.p. injection of 100 mg/kg pentobarbital. Brains and spinal cord were removed and were fixed by overnight incubation with 4% Paraformaldehyde. The cervical segment of the spinal cord was dehydrated using ethanol solutions of increasing concentration and then embedded in paraplast. The spinal cord was then sectioned (10 μm) and staining was performed using hematoxylin and eosin. The stained slides were examined under light microscopy for foci of infiltrating lymphocytes. Number of foci were counted and averaged in 6 sections for each animal. Three groups of at least 4 animals each were tested in this system: untreated, vehicle treated, and animals treated with 0.5 mg/kg of compound A. Results are expressed as average±SD of number of foci.

In a further data set the test system is Male ICR mice. In words: Visceral pain induced by i.p. acetic acid. Format: in vivo, mouse. On the procedure: Male ICR mice (25 g average body weight, Harlan, Israel) were pretreated by i.v. injection at volume dose of 5 ml/kg of vehicle, control and test compounds at various doses. Each treatment group was composed of at least 4 animals. Fifteen minutes later, the mice were injected i.p. with 10 ml/kg of 0.6% acetic acid and the number of withers is counted over a period of 5 minutes, starting 5 minutes after the acetic acid administration. The results are expressed as mean number of withers±SD.

In a further data set the test system is ICR male mice. In words: Development of tolerance on repeated administration, tail flick model. As to conditions: 10 mg/kg twice daily i.p. On the procedure:
ICR male mice (20-30 g average body weight, Harlan, Israel) were injected i.p. at the volume dose of 5 ml/kg. Each treatment group contained at least 6 animals. Morphine HCl was used as positive control at the final dose of 5 mg/kg. Its vehicle, saline, was also included as control. The test compounds were dissolved in CREMOPHOR EL®:ethanol and diluted 1:20 in saline prior to injection, this second type of vehicle was also included as negative control. The final dose injected varied from 0.1 to 10 mg/kg. At predetermined time points after treatment injection, the animals were placed in the tail flick system (Socrel, model DS 20). Animals were gently held while their tails were located above the photoelectric cell. The tails were then illuminated (21V) at 2 cm from the distal tip and the latency time, measured in seconds, was recorded in duplicates. At the end of the study, the animals were euthanized by i.p. injection of 100 mg/kg sodium pentobarbitone.
Tolerance was assessed in the tail flick model above described. Briefly, the test compounds were administered twice daily i.p. for up to 10 days to groups of 10 animals each. The noxious pain threshold was measured as previously described in example 13 thirty minutes after the first drug administration on days 1, 4, 8 and 10. Results are expressed as mean latency time till the animal flicked its tail±SE. The differences between the latency times or the % of animals showing analgesia among various treatment groups was analyzed by analysis of variance (ANOVA) followed by post-hoc Tukey's test (for latency) or Fisher's exact test (for % animals). A value of p<0.05 is considered to be statistically significant.

For `CCCCCCC(C)(C)c1cc(O)c(C2CC(=O)C3CC2C3(C)C)c(O)c1` (single isomer, unassigned; (-)) [Compound A, (−)-4-[4-(1,1-Dimethyl-heptyl)2,6-dihydroxy-phenyl]-6,6-dimethyl-bicyclo[3.1.1)heptan-2-one], the “% animals with latency time twice superior to vehicle” value in the data set with Sprague Dawley male rats (3 mg/kg i.v.) and with Sprague Dawley male rats (4 mg/kg i.v.) was 100% each time. The “% animals with increased resistance to pain” value with Sprague Dawley male rats (4 mg/kg i.v., 330 minutes) is on record as around 70%. In addition, in the data set with Lewis rats (0.5 mg/kg, 15 days after induction), the decrease of infiltration entry is listed as “more than 50%”. Also, the “number of infiltration foci in spinal cord” value with Lewis rats (0.5 mg/kg, 15 days after induction, average±SD) turned out to be 10±5 foci/section. For the same compound, in the data set with Lewis rats (1 mg/kg, independent blinded repeat), the “reduction in the clinical score” value is given as 30%. Further, the “reduction in the AUC of the clinical score” value in the data set with Lewis rats (1 mg/kg, three consecutive days from onset of disease) was 35%. Further, the therapeutic index result in the data set on Lewis rats (EAE, 1 mg/kg versus tolerated 40 mg/kg) was “at least 40”. Further, the “inhibition of number of withers as compared to vehicle” value with Male ICR mice (0.5 mg/kg i.v.) was 64%; in the data set with Male ICR mice (1 mg/kg i.v.) it was 95%; in the data set on Male ICR mice (2 mg/kg i.v.), 100%. The number of withers with Male ICR mice (0.5 mg/kg i.v., mean±SD) is on record as 7.9±4.8; in the data set with Male ICR mice (1 mg/kg i.v., mean±SD), 1.2±0.6; with Male ICR mice (2 mg/kg i.v.) it was “no withers at all”. Also, the development of tolerance entry in the data set with ICR male mice (20 administrations) is “did not cause the development of tolerance”. Moreover, the “% of animals showing increased analgesia” value was determined as 80% in the data set on ICR male mice (day 10) and 88% in the data set with ICR male mice (day one). The latency time in the data set with ICR male mice (day 10) turned out to be 7 s; in the data set on ICR male mice (day one), 8.1 s.
